Results as given in patent publication US11976083B2, “Inhibitors of peptidylarginine deiminases” (Gilead Sciences, Inc., priority 2020, dated 2024).

molecular target: T1, human PAD4 (Homo sapiens, UniProt Q9UM07); experiment: In vitro PAD4 BAEE biochemical assay; settings: BAEE substrate 3 mM, 5 nM PAD4, 2 mM calcium chloride; geometric mean of multiple experiments
T1 construct: human PAD4 (NM_012387), A2-P663, was PCR amplified; His-SUMO (N, cleaved yes); made in house; host or cells: E. coli BL21(DE3)
T1 sequence (Q9UM07 2-663): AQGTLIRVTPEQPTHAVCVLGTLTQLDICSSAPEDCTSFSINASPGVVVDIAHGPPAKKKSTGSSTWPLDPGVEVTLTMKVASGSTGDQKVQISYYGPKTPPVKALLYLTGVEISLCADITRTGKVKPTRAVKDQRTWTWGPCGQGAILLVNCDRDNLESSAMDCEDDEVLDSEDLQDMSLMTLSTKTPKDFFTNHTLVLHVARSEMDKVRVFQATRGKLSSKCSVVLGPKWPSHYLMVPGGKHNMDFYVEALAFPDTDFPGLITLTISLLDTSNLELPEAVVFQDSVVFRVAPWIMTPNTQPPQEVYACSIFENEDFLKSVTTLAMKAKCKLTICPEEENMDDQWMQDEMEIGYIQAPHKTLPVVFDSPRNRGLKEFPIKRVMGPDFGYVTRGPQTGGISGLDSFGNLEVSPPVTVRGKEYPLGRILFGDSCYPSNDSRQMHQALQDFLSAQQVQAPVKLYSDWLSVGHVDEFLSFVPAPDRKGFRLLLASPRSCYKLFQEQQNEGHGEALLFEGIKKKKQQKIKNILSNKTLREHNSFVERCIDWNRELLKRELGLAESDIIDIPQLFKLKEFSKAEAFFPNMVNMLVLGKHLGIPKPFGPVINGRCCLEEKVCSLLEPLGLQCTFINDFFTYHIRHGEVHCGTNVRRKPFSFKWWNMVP
Outline: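 PAD4 5 nM, CaCl2 2 mM, BAEE 3 mM final; 50 mM MOPS pH 7.6, 50 mM NaCl, 0.05% Tween-20, 2 mM DTT. Cpd + enzyme 30 min 25 °C; substrate 2 h 25 °C; EDTA stop; OPA detection 1 h. IC50 4-parameter fit.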

Row | SMILES | IC50 [nM]
1 | COc1cc(C(=O)N2CC[C@@H]3CCN[C@@H]3C2)cc2nc(-c3cc4ccc5nc4n3CCCCCCC(C)(C)C(=O)N[C@@H]5C)n(C)c12 [Example 81, (11~{R})-17-[5-[(3~{a}~{S},7~{a}~{S})-1,2,3,3~{a},4,5,7,7~{a}-octahydropyrrolo[2,3-c]pyridine-6-carbonyl]-7-methoxy-1-methyl-benzimidazol-2-yl]-8,8,11-trimethyl-1,10,19-triazatricyclo[10.5.2.0^{15,18}]nonadeca-12(19),13,15(18),16-tetraen-9-one] | 505
2 | COc1cc(C(=O)N2CC[C@@H](OC)[C@@H](N)C2)cc2nc(-c3cc4ccc5nc4n3CCCCCc3cc4ccccc4nc3C(=O)N(C)[C@@H]5C)n(C)c12 [Example 735, (2~{R})-21-[5-[(3~{S},4~ {R})-3-amino-4-methoxy-piperidine-1-carbonyl]-7-methoxy-1-methyl-benzimidazol-2-yl]-2,3-dimethyl-3,6,20,26-tetrazapentacyclo[18.5.2.0^ {5,14).0^{7,12}.0^ {23,27}]heptacosa-1(26),5(14),6,8,10,12,21,23(27), 24-nonaen-4-one] | 143
3 | C[C@H]1NC(=O)[C@@H]2C[C@H]2CCCCCn2c(-c3nc4cc(C(=O)N[C@H]5CNCC[C@@H]5F)cc(C(F)(F)F)c4n3C)cc3ccc1nc32 [Example 562, ~{N}-[(3~{S},4~{S})-4-fluoro-3-piperidyl]-1-methyl-2-[(2~{R},5~{R},7~ {R})-2-methyl-4-oxo-3,13,19-triazatetracyclo [11.5.2.0^{5,7}.0^{16,20}]icosa-1(19),14,16(20), 17-tetraen-14-yl]-7-(trifluoromethyl) benzimidazole-5-carboxamide] | 466
4 | C[C@H]1NC(=O)[C@@H]2C[C@@]2(F)CCCCCn2c(-c3nc4cc(C(=O)N5C[C@H](N)[C@@H]6CC[C@H]5C6)cc(F)c4n3C3CC3)cc3ccc1nc32 [Example 450, (2~{R},5~{S},7~{S})-14-[5-[(1~{S},4~{R},5~{R})-4-amino-2-azabicyclo[3.2.1]octane-2-carbonyl]-1-cyclopropyl-7-fluoro-benzimidazol-2-yl]-7-fluoro-2-methyl-3,13,19-triazatetracyclo[11.5.2.0^{5,7}.0^{16,20}] icosa-1(19),14,16(20),17-tetraen-4-one] | 21
5 | C[C@H]1NC(=O)c2ccc(Cl)nc2CCCCCn2c(-c3nc4cc(C(=O)N5C[C@H](N)[C@@H]6CC[C@H]5C6)cc(F)c4n3C3CC3)cc3cc(F)c1nc32 [Example 895, (2~{R})-17-[5-[(1~{S},4~{R}, 5~{R})-4-amino-2-azabicyclo [3.2.1]octane-2-carbonyl]-1-cyclopropyl-7-fluoro-benzimidazol-2-yl]-8-chloro-21-fluoro-2-methyl-3,9,16,22-tetrazatetracyclo[14.5.2.0^ {5,10).0^{19,23}]tricosa-1(22),5(10),6,8,17,19(23),20-heptaen-4-one] | 34
6 | COCCOCCn1c(-c2cc3ccc4nc3n2CCCCC[C@@H]2C[C@H]2C(=O)N[C@@H]4C)nc2cc(C(=O)N[C@H]3CNCC[C@@H]3F)c(F)cc21 [Example 427, 6-fluoro-~{N}-[(3~{S),4~{S})-4-fluoro-3-piperidyl]-1-[2-(2-methoxyethoxy)ethyl]-2-[(2~{R},5~{R},7~{R})-2-methyl-4-oxo-3,13,19-triazatetracyclo[11.5.2.0^{5,7}.0^{16,20}]icosa-1(19),14,16(20),17-tetraen-14-yl]benzimidazole-5-carboxamide] | 54
7 | COc1cc(C(=O)N[C@H]2CNCC[C@@H]2F)cc2nc(-c3cc4ccc5nc4n3C[C@H]3C[C@H]3CCCC(C)(C)C(=O)N[C@@H]5C)n(C)c12 [Example 367, ~{N}-[(3~{S},4~{S})-4-fluoro-3-piperidyl]-7-methoxy-1-methyl-2-[(3~{S},5~{R},12~{R})-9,9,12-trimethyl-10-oxo-1,11,20-triazatetracyclo[11.5.2.0^{3,5}.0^{16,19}]icosa-13(20),14,16(19),17-tetraen-18-yl]benzimidazole-5-carboxamide] | 82
8 | C[C@H]1NC(=O)[C@@H]2C[C@H]2CCCCCn2c(-c3nc4cc(C(=O)N[C@H]5CNCC[C@@H]5F)c(F)cn4c3C3CC3)cc3ccc1nc32 [Example 580, 3-cyclopropyl-6-fluoro-~ {N}-[(3~{S},4~{S})-4-fluoro-3-piperidyl]-2-[(2~{R},5~{R},7~{R})-2-methyl-4-oxo-3,13,19-triazatetracyclo[11.5.2.0^ {5,7}.0^{16,20}]icosa-1(19),14,16(20),17-tetraen-14-yl]imidazo[1,2-a] pyridine-7-carboxamide] | 24
9 | COc1cc(C(=O)N2CCC[C@@H](N)C2)cc2nc(-c3cc4ccc5nc4n3C[C@H]3C[C@H]3COC[C@H](C)C(=O)N[C@@H]5C)n(C)c12 (single isomer, unassigned) [Example 313, (3˜{S},5˜{R},9˜{S},12˜{R})-18-[5-[(3˜{R})-3-aminopiperidine-1-carbonyl]-7-methoxy-1-methyl-benzimidazol-2-yl]-9,12-dimethyl-7-oxa-1,11,20-triazatetracyclo[11.5.2.0^{3,5}.0^{16,19}]icosa-13(20),14,16(19),17-tetraen-10-one] | 85
10 | COc1cc(C(=O)N[C@H]2CNCC[C@@H]2F)cc2nc(-c3cc4ccc5nc4n3CCCCCc3c(cnn3C)C(=O)N[C@@H]5C)n(C)c12 [Example 180, 2-[(2~{R})-2,8-dimethyl-4-oxo-3,7,8,15,21-pentazatetracyclo[13.5.2.0^{5,9}.0^{18,22}]docosa-1(21),5(9),6,16,18(22),19-hexaen-16-yl]-~{N}-[(3~{S},4~{S})-4-fluoro-3-piperidyl]-7-methoxy-1-methyl-benzimidazole-5-carboxamide] | 75
11 | CO[C@@H]1CCN(C(=O)c2cc(F)c3c(c2)nc(-c2cc4ccc5nc4n2CCCCCc2nc(Cl)ccc2C(=O)N[C@@H]5C)n3C)C[C@@H]1N [Example 740, (2~{R})-17-[5-[(3~{S},4~ {R})-3-amino-4-methoxy-piperidine-1-carbonyl]-7-fluoro-1-methyl-benzimidazol-2-yl]-8-chloro-2-methyl-3,9,16,22-tetrazatetracyclo [14.5.2.0^{5,10}.0^{19,23}] tricosa-1(22),5(10),6,8,17,19(23),20-heptaen-4-one] | 30
12 | COc1cc(C(=O)N2C[C@H](N)[C@@H]3CC[C@H]2C3)cc2nc(-c3cc4ccc5nc4n3CCCCCCCCN(C(C)=O)[C@@H]5C)n(C)c12 [Example 908] | 151
13 | COc1cc(C(=O)N[C@H]2CNCC[C@@H]2F)cc2nc(-c3cc4ccc5nc4n3CCCCCc3cnccc3C(=O)N[C@@H]5C)n(C)c12 [Example 344, ~{N}-[(3~{S},4~{S})-4-fluoro-3-piperidyl]-7-methoxy-1-methyl-2-[(2~{R})-2-methyl-4-oxo-3,8,16,22-tetrazatetracyclo[14.5.2.0^{5,10}.0^{19,23}]tricosa-1(22),5,7,9,17,19(23),20-heptaen-17-yl]benzimidazole-5-carboxamide] | 51

Now from value to compound:

Row | IC50 [nM] | SMILES
14 | 12 | COc1cc(C(=O)N2[C@H]3CC[C@@H]2[C@H](N)C3)cc2nc(-c3cc4ccc5nc4n3C/C=C\CCCCC(=O)N[C@@H]5C)c(C)n12 [Example 123, (3~{2},11~{R})-17-[7-[(1~{R},2~{R},4~{S})-2-amino-7-azabicyclo[2.2.1]heptane-7-carbonyl]-5-methoxy-3-methyl-imidazo[1,2-a]pyridin-2-yl]-11-methyl-1,10,19-triazatricyclo[10.5.2.0^{15,18}]nonadeca-3,12(19),13,15(18),16-pentaen-9-one]
15 | 172 | CO[C@@H]1CCN(C(=O)c2cc(Cl)c3c(c2)nc(-c2cc4ccc5nc4n2CCCCCc2nccnc2C(=O)N[C@@H]5C)n3C)C[C@@H]1N [Example 504, (2~{R})-17-[5-[(3~ {S},4~{R})-3-amino-4-methoxy-piperidine-1-carbonyl]-7-chloro-1-methyl-benzimidazol-2-yl]-2-methyl-3,6,9,16,22-pentazatetracyclo [14.5.2.0^{5,10}.0^{19, 23}]tricosa-1(22),5(10), 6,8,17,19(23),20-heptaen-4-one]
16 | 23 | COc1cc(C(=O)N2[C@H]3CC[C@@H]2[C@H](N)C3)cc2nc(-c3cc4ccc5nc4n3CC(F)(F)CCC[C@@H]3C[C@H]3C(=O)N[C@@H]5C)n(C)c12 [Example 642, (2~{R},5~{R},7~{R})-14-[5-[(1~{R},2~{R},4~ {S})-2-amino-7-azabicyclo[2.2.1]heptane-7-carbonyl]-7-methoxy-1-methyl-benzimidazol-2-yl]-11,11-difluoro-2-methyl-3,13,19-triazatetracyclo [11.5.2.0^{5,7}.0^{16,20}] icosa-1(19),14,16(20), 17-tetraen-4-one]
17 | 49 | COc1cc(C(=O)N2CCC[C@@H](N)C2)cc2nc(-c3cc4ccc5nc4n3CCCCCC[C@H](C)C(=O)N[C@@H]5C)n(C)c12 [Example 111, (8~{S},11~{R})-17-[5-[(3~{R})-3-aminopiperidine-1-carbonyl]-7-methoxy-1-methyl-benzimidazol-2-yl]-8,11-dimethyl-1,10,19-triazatricyclo[10.5.2.0^{15,18}]nonadeca-12(19),13,15(18),16-tetraen-9-one]
18 | 131 | C[C@H]1NC(=O)CCCCCCCn2c(-c3nc4cc(C(=O)N5CCC[C@@H](N)C5)ccn4c3C3CC3)cc3ccc1nc32 [Example 228, (11~{R})-17-[7-[(3~{R})-3-aminopiperidine-1-carbonyl]-3-cyclopropyl-imidazo[1,2-a]pyridin-2-yl]-11-methyl-1,10,19-triazatricyclo[10.5.2.0^{15,18}]nonadeca-12(19),13,15(18),16-tetraen-9-one]
19 | 52 | COc1cc(C(=O)N2CC[C@@H](OC)[C@@H](N)C2)cc2nc(-c3cc4ccc5nc4n3CCCCCc3ccncc3C(=O)N[C@@H]5C)n(C)c12 [Example 649, (2~{R})-17-[5-[(3~{S), 4~{R})-3-amino-4-methoxy-piperidine-1-carbonyl]-7-methoxy-1-methyl-benzimidazol-2-yl]-2-methyl-3,7,16,22-tetrazatetracyclo[14.5.2.0^ {5,10}.0^{19,23}] tricosa-1(22),5,7,9,17,19(23), 20-heptaen-4-one]
